Results published in ChEMBL document CHEMBL1201862, “PubChem BioAssay data set” (2004).
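Each compound was tested at five concentrations against cells in 96-well plates for 48 hours. GI50: concentration for 50% inhibition of growth.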 The source made the active and inactive calls. Rule as the data show it: active = GI50 up to about 1.1 µM and inactive = higher.

Experiments:
Experiment in all cases: NCI tumour cell line growth inhibition, 48 h
NCI-H23 = system: NCI-H23
HL-60 = system: HL-60
K562 = system: K562
U-251 = system: U-251
KM-20L2 = system: KM-20L2
SNB-78 = system: SNB-78
SR = system: SR
HOP-62 = system: HOP-62
SW-620 = system: SW-620
UO-31 = system: UO-31
DMS-114 = system: DMS-114
XF498 = system: XF498
IGROV-1 = system: IGROV-1
NCI-H460 = system: NCI-H460
CCRF-CEM = system: CCRF-CEM
SK-MEL-28 = system: SK-MEL-28
NCI-H522 = system: NCI-H522
DLD-1 = system: DLD-1
OVCAR-4 = system: OVCAR-4
SNB-75 = system: SNB-75
M19-MEL = system: M19-MEL
KM12 = system: KM12
RPMI-8226 = system: RPMI-8226
UACC-62 = system: UACC-62
SK-OV-3 = system: SK-OV-3
UACC-257 = system: UACC-257
OVCAR-5 = system: OVCAR-5
SF-268 = system: SF-268
COLO 205 = system: COLO 205
DMS-273 = system: DMS-273
SNB-19 = system: SNB-19
HCT-15 = system: HCT-15
A549 = system: A549
MOLT-4 = system: MOLT-4
LOX IMVI = system: LOX IMVI
HOP-92 = system: HOP-92
ACHN = system: ACHN
RXF 393 = system: RXF 393
SF-539 = system: SF-539
SK-MEL-2 = system: SK-MEL-2
OVCAR-8 = system: OVCAR-8
HCT-116 = system: HCT-116
CAKI-1 = system: CAKI-1
Malme-3M = system: Malme-3M
M14 = system: M14
A498 = system: A498
LXFL 529 = system: LXFL 529
NCI-H226 = system: NCI-H226
SF-295 = system: SF-295
SK-MEL-5 = system: SK-MEL-5
SN12C = system: SN12C
786-0 = system: 786-0
TK-10 = system: TK-10
HCC 2998 = system: HCC 2998
HT-29 = system: HT-29
OVCAR-3 = system: OVCAR-3
EKVX = system: EKVX
HOP-18 = system: HOP-18

COC(=O)c1nn(C(=N)c2ccc(Cl)cc2)c2c1CCC2
GI50 (NCI-H23): > 100 µM (inactive) | GI50 (HL-60): > 100 µM (inactive) | GI50 (K562): > 100 µM (inactive) | GI50 (U-251): > 100 µM (inactive) | GI50 (KM-20L2): > 100 µM (inactive) | GI50 (SNB-78): > 100 µM (inactive) | GI50 (SR): 14.7 µM (inactive) | GI50 (HOP-62): > 100 µM (inactive) | GI50 (SW-620): > 100 µM (inactive) | GI50 (UO-31): > 100 µM (inactive) | GI50 (DMS-114): > 100 µM (inactive) | GI50 (XF498): > 100 µM (inactive) | GI50 (IGROV-1): > 100 µM (inactive) | GI50 (NCI-H460): > 100 µM (inactive) | GI50 (CCRF-CEM): > 100 µM (inactive) | GI50 (SK-MEL-28): > 100 µM (inactive) | GI50 (NCI-H522): > 100 µM (inactive) | GI50 (DLD-1): > 100 µM (inactive) | GI50 (OVCAR-4): > 100 µM (inactive) | GI50 (SNB-75): > 100 µM (inactive) | GI50 (M19-MEL): > 100 µM (inactive) | GI50 (KM12): > 100 µM (inactive) | GI50 (RPMI-8226): > 100 µM (inactive) | GI50 (UACC-62): > 100 µM (inactive) | GI50 (SK-OV-3): > 100 µM (inactive) | GI50 (UACC-257): > 100 µM (inactive) | GI50 (OVCAR-5): > 100 µM (inactive) | GI50 (SF-268): > 100 µM (inactive) | GI50 (COLO 205): > 100 µM (inactive) | GI50 (DMS-273): > 100 µM (inactive) | GI50 (SNB-19): > 100 µM (inactive) | GI50 (HCT-15): > 100 µM | GI50 (A549): > 100 µM (inactive) | GI50 (MOLT-4): > 100 µM (inactive) | GI50 (LOX IMVI): > 100 µM (inactive) | GI50 (HOP-92): > 100 µM (inactive) | GI50 (ACHN): > 100 µM (inactive) | GI50 (RXF 393): > 100 µM (inactive) | GI50 (SF-539): > 100 µM (inactive) | GI50 (SK-MEL-2): > 100 µM (inactive) | GI50 (OVCAR-8): > 100 µM (inactive) | GI50 (HCT-116): > 100 µM (inactive) | GI50 (CAKI-1): > 100 µM (inactive) | GI50 (Malme-3M): > 100 µM (inactive) | GI50 (M14): > 100 µM (inactive) | GI50 (A498): > 100 µM (inactive) | GI50 (LXFL 529): > 100 µM (inactive) | GI50 (NCI-H226): > 100 µM (inactive) | GI50 (SF-295): > 100 µM (inactive) | GI50 (SK-MEL-5): > 100 µM (inactive) | GI50 (SN12C): > 100 µM (inactive) | GI50 (786-0): > 100 µM (inactive) | GI50 (TK-10): > 100 µM (inactive) | GI50 (HCC 2998): > 100 µM (inactive) | GI50 (HT-29): > 100 µM (inactive)

Brc1c2nc3ccccc3nc2n2ccc3ccccc3c12
GI50 (NCI-H23): > 100 µM (inactive) | GI50 (HL-60): > 100 µM (inactive) | GI50 (K562): > 100 µM (inactive) | GI50 (U-251): > 100 µM (inactive) | GI50 (KM-20L2): > 100 µM (inactive) | GI50 (SNB-78): > 100 µM (inactive) | GI50 (SR): > 100 µM (inactive) | GI50 (HOP-62): > 100 µM (inactive) | GI50 (SW-620): > 100 µM (inactive) | GI50 (UO-31): > 100 µM (inactive) | GI50 (DMS-114): > 100 µM (inactive) | GI50 (XF498): > 100 µM (inactive) | GI50 (IGROV-1): 47.6 µM (inactive) | GI50 (NCI-H460): > 100 µM (inactive) | GI50 (CCRF-CEM): > 100 µM (inactive) | GI50 (SK-MEL-28): > 100 µM (inactive) | GI50 (NCI-H522): 69.5 µM (inactive) | GI50 (DLD-1): > 100 µM (inactive) | GI50 (OVCAR-4): > 100 µM (inactive) | GI50 (SNB-75): > 100 µM (inactive) | GI50 (M19-MEL): > 100 µM (inactive) | GI50 (KM12): > 100 µM (inactive) | GI50 (RPMI-8226): > 100 µM (inactive) | GI50 (UACC-62): > 100 µM (inactive) | GI50 (SK-OV-3): 2.23 µM (inactive) | GI50 (UACC-257): > 100 µM (inactive) | GI50 (OVCAR-5): > 100 µM (inactive) | GI50 (SF-268): > 100 µM (inactive) | GI50 (COLO 205): > 100 µM (inactive) | GI50 (DMS-273): > 100 µM (inactive) | GI50 (SNB-19): > 100 µM (inactive) | GI50 (HCT-15): > 100 µM | GI50 (A549): > 100 µM (inactive) | GI50 (MOLT-4): > 100 µM (inactive) | GI50 (LOX IMVI): > 100 µM (inactive) | GI50 (HOP-92): > 100 µM (inactive) | GI50 (ACHN): > 100 µM (inactive) | GI50 (SF-539): > 100 µM (inactive) | GI50 (SK-MEL-2): > 100 µM (inactive) | GI50 (OVCAR-8): > 100 µM (inactive) | GI50 (HCT-116): > 100 µM (inactive) | GI50 (CAKI-1): > 100 µM (inactive) | GI50 (Malme-3M): > 100 µM (inactive) | GI50 (OVCAR-3): > 100 µM (inactive) | GI50 (M14): > 100 µM (inactive) | GI50 (LXFL 529): > 100 µM (inactive) | GI50 (EKVX): > 100 µM (inactive) | GI50 (SK-MEL-5): > 100 µM (inactive) | GI50 (SN12C): > 100 µM (inactive) | GI50 (786-0): > 100 µM (inactive) | GI50 (TK-10): > 100 µM (inactive) | GI50 (HCC 2998): > 100 µM (inactive)

N#C/C(=C/c1ccc2c(c1)OCO2)C(=O)c1ccccc1
GI50 (NCI-H23): > 100 µM (inactive) | GI50 (K562): > 100 µM (inactive) | GI50 (U-251): > 100 µM (inactive) | GI50 (KM-20L2): > 100 µM (inactive) | GI50 (SNB-78): > 100 µM (inactive) | GI50 (HOP-62): > 100 µM (inactive) | GI50 (SW-620): > 100 µM (inactive) | GI50 (UO-31): > 100 µM (inactive) | GI50 (XF498): > 100 µM (inactive) | GI50 (IGROV-1): > 100 µM (inactive) | GI50 (NCI-H460): > 100 µM (inactive) | GI50 (CCRF-CEM): > 100 µM (inactive) | GI50 (SK-MEL-28): > 100 µM (inactive) | GI50 (NCI-H522): > 100 µM (inactive) | GI50 (DLD-1): > 100 µM (inactive) | GI50 (OVCAR-4): > 100 µM (inactive) | GI50 (SNB-75): > 100 µM (inactive) | GI50 (M19-MEL): > 100 µM (inactive) | GI50 (KM12): > 100 µM (inactive) | GI50 (RPMI-8226): > 100 µM (inactive) | GI50 (UACC-62): > 100 µM (inactive) | GI50 (SK-OV-3): > 100 µM (inactive) | GI50 (UACC-257): > 100 µM (inactive) | GI50 (OVCAR-5): > 100 µM (inactive) | GI50 (SF-268): > 100 µM (inactive) | GI50 (COLO 205): > 100 µM (inactive) | GI50 (SNB-19): > 100 µM (inactive) | GI50 (HCT-15): > 100 µM | GI50 (A549): > 100 µM (inactive) | GI50 (MOLT-4): > 100 µM (inactive) | GI50 (HOP-18): > 100 µM (inactive) | GI50 (ACHN): > 100 µM (inactive) | GI50 (SF-539): > 100 µM (inactive) | GI50 (SK-MEL-2): > 100 µM (inactive) | GI50 (OVCAR-8): > 100 µM (inactive) | GI50 (HCT-116): > 100 µM (inactive) | GI50 (CAKI-1): > 100 µM (inactive) | GI50 (Malme-3M): > 100 µM (inactive) | GI50 (OVCAR-3): > 100 µM (inactive) | GI50 (M14): > 100 µM (inactive) | GI50 (A498): > 100 µM (inactive) | GI50 (LXFL 529): > 100 µM (inactive) | GI50 (SF-295): > 100 µM (inactive) | GI50 (EKVX): > 100 µM (inactive) | GI50 (SK-MEL-5): > 100 µM (inactive) | GI50 (SN12C): > 100 µM (inactive) | GI50 (786-0): > 100 µM (inactive) | GI50 (TK-10): > 100 µM (inactive) | GI50 (HCC 2998): > 100 µM (inactive) | GI50 (HT-29): > 100 µM (inactive)
